From patent US20260070945A1, “MACROCYCLIC IMMUNOMODULATORS” (Bristol-Myers Squibb Company, priority 2022, published 2026)
*1 amine or outer side, *2 acyl side, *3 side chain or, on linkers, in order; H or OH if unused. Where a SMILES comes first, the peptide text is derived from it. Bridges are numbered along the chain shown (N, C = ends). [ ]: non-standard residue; d: D form. The star is where a group is joined. ξ: configuration not given here. Phe(3-CF3) = N[C@@H](Cc1cccc(C(F)(F)F)c1)C(=O)O; Phe(4-COOH) = N[C@@H](Cc1ccc(C(=O)O)cc1)C(=O)O; Bip = N[C@@H](Cc1ccc(-c2ccccc2)cc1)C(=O)O; Phe(3-Cl) = N[C@@H](Cc1cccc(Cl)c1)C(=O)O; NH(CH2)14COOH = O=C(O)CCCCCCCCCCCCCCN*; Phe(3-Me) = Cc1cccc(C[C@H](N)C(=O)O)c1; γGlu = O=C(O)[C@H](CCC(=O)[*:2])N[*:1]; Abu(3S-NH2) = C[C@H](N)[C@H](N)C(=O)O; NH(CH2)12COOH = O=C(O)CCCCCCCCCCCCN*; Val(3-OH) = CC(C)(O)[C@H](N)C(=O)O; hArg = N=C(N)NCCCC[C@H](N)C(=O)O; 4Pal = N[C@@H](Cc1ccncc1)C(=O)O; Cha = N[C@@H](CC1CCCCC1)C(=O)O; Ile(3ξ) = CCC(C)[C@H](N)C(=O)O; Thr(3ξ) = CC(O)[C@H](N)C(=O)O; hSer = N[C@@H](CCO)C(=O)O; Carboxymethyl = O=C(O)C*; NMeA = CN[C@@H](C)C(=O)O; Orn = NCCC[C@H](N)C(=O)O; Pra = C#CC[C@H](N)C(=O)O; Aun = NCCCCCCCCCCC(=O)O; Dab = NCC[C@H](N)C(=O)O; Dap = NC[C@H](N)C(=O)O; AEEA = NCCOCCOCC(=O)O; Ac3c = NC1(C(=O)O)CC1

Target: T1, PD-1/PD-L1 interaction (PE-labeled human PD-L1-Ig binding to Jurkat cell line over-expressing human PD-1) (Homo sapiens, UniProt Q15116)
T1 construct: expressed in transfected cells; host or cells: Jurkat
T1 sequence (Q15116 25-288): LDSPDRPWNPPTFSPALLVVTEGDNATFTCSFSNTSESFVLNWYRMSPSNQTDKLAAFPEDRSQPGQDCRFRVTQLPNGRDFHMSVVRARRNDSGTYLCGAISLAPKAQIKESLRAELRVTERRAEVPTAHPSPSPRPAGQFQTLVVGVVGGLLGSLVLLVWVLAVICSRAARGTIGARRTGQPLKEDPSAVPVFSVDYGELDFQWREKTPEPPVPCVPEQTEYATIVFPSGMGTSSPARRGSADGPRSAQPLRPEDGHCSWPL
Assay: Jurkat-PD-1 Cell Binding High-Content Screening Assay (CBA)
Settings: Jurkat-hPD-1 cells, PE-labeled PD-L1-Ig 20 nM final; read-out: Jurkat HPD1 PDL1 IC50
In short: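 Binding of 20 nM (final) PE-tagged PD-L1-Ig to compound-pretreated Jurkat-hPD-1 cells was measured by high-content imaging after 1 h. Pretreatment ran 2 h at 37 °C in DMEM with 10% fetal calf serum.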

| Compound | IC50 |
| --- | --- |
| CC[C@H](C)[C@@H]1NC(=O)[C@H](Cc2ccc(-c3ccccc3)cc2)NC(=O)[C@H](CC(C)C)NC(=O)[C@H](Cc2c[nH]c3ccccc23)NC(=O)[C@H](CC(=O)O)NC(=O)[C@H](Cc2ccc(OCC(=O)O)cc2)NC(=O)[C@H](CCCCNC(=N)N)NC(=O)CSC[C@@H](C(=O)NCCOCCOCC(=O)N[C@@H](CCN)C(=O)NCCCCCCCCCCC(=O)O)NC(=O)[C@H](CCCCN)NC(=O)[C@H](C(C)C)NC(=O)[C@H](CC2CCCCC2)NC(=O)[C@H](CCN)NC(=O)[C@H]2CCCN2C(=O)[C@H](C)N(C)C1=O [Example 2186] ({CH2CO}-[hArg]Y(Carboxymethyl)DWL[Bip]I[NMeA][dP][Dab][Cha]VKC[AEEA][Dab][Aun]-OH; thioether N-14) | 158 nM |
| Cc1cccc(C[C@@H]2NC(=O)[C@H](CC(=O)O)NC(=O)[C@H](Cc3ccc(C(=O)O)cc3)NC(=O)[C@H](Cc3ccc(OCC(=O)O)cc3)NC(=O)CSC[C@@H](C(=O)NCCOCCOCC(=O)NCCCCCCCCCCC(=O)O)NC(=O)[C@H](CCO)NC(=O)[C@H](C(C)C)NC(=O)[C@H](CC3CCCCC3)NC(=O)[C@H](CCN)NC(=O)[C@@H](CC(C)C)NC(=O)[C@H](C)N(C)C(=O)[C@H](C(C)C)NC(=O)[C@H](Cc3ccc(-c4ccccc4)cc3)NC(=O)[C@H](C(C)C)NC2=O)c1 [Example 2217] ({CH2CO}-Y(Carboxymethyl)[Phe(4-COOH)]D[Phe(3-Me)]V[Bip]V[NMeA][dL][Dab][Cha]V[hSer]C[AEEA][Aun]-OH; thioether N-14) | 11.5 nM |
| CC(C)C[C@@H]1NC(=O)[C@H](Cc2c[nH]c3ccccc23)NC(=O)[C@H](CC(=O)O)NC(=O)[C@H](Cc2ccc(C(=O)O)cc2)NC(=O)[C@H](Cc2ccc(OCC(=O)O)cc2)NC(=O)CSC[C@@H](C(=O)NCCOCCOCC(=O)NCCCCCCCCCCC(=O)O)NC(=O)[C@H](CO)NC(=O)[C@H](C(C)C)NC(=O)[C@H](CC2CCCCC2)NC(=O)[C@H](CCN)NC(=O)[C@@H](CC(C)C)NC(=O)[C@H](C)N(C)C(=O)[C@H](C(C)C)NC(=O)[C@H](Cc2ccc(-c3ccccc3)cc2)NC1=O [Example 2225] ({CH2CO}-Y(Carboxymethyl)[Phe(4-COOH)]DWL[Bip]V[NMeA][dL][Dab][Cha]VSC[AEEA][Aun]-OH; thioether N-14) | 9.7 nM |
| Cc1cccc(C[C@@H]2NC(=O)[C@H](CC(=O)O)NC(=O)[C@H](Cc3ccc(OCC(=O)O)cc3)NC(=O)[C@H](CN)NC(=O)CSC[C@@H](C(=O)NC3(C(=O)NCCOCCOCC(=O)NCCCCCCCCCCC(=O)O)CC3)NC(=O)[C@H](CCCN)NC(=O)[C@H](C(C)C)NC(=O)[C@H](CC3CCCCC3)NC(=O)[C@H](CCN)NC(=O)[C@@H](CC(C)C)NC(=O)[C@H](C)N(C)C(=O)[C@H](Cc3ccc(O)cc3)NC(=O)[C@H](Cc3ccc(-c4ccccc4)cc3)NC(=O)[C@H](Cc3ccc(O)cc3)NC2=O)c1 [Example 1252] ({CH2CO}-[Dap]Y(Carboxymethyl)D[Phe(3-Me)]Y[Bip]Y[NMeA][dL][Dab][Cha]V[Orn]C[Ac3c][AEEA][Aun]-OH; thioether N-14) | 22.8 nM |
| CCC(C)[C@@H]1NC(=O)[C@H](Cc2ccc(-c3ccccc3)cc2)NC(=O)[C@H](CC(C)C)NC(=O)[C@H](Cc2c[nH]c3ccccc23)NC(=O)[C@H](CC(=O)O)NC(=O)[C@H](Cc2ccc(OCC(=O)O)cc2)NC(=O)[C@H](CCCCNC(=N)N)NC(=O)CSC[C@@H](C(=O)N[C@@H](CCN)C(=O)NCCOCCOCC(=O)NCCCCCCCCCCC(=O)O)NC(=O)[C@H](CCCCN)NC(=O)[C@H](C(C)C)NC(=O)[C@H](CC2CCCCC2)NC(=O)[C@H](CCN)NC(=O)[C@H]2CCCN2C(=O)[C@H](C)N(C)C1=O (stereo partly drawn) [Example 2206] ({CH2CO}-[hArg]Y(Carboxymethyl)DWL[Bip][Ile(3ξ)][NMeA][dP][Dab][Cha]VKC[Dab][AEEA][Aun]-OH; thioether N-14) | 83.7 nM |
| C#CC[C@H](NC(=O)[C@H](CCN)NC(=O)[C@@H]1CSCC(=O)N[C@@H]([C@@H](C)O)C(=O)N[C@@H](Cc2ccc(OCC(=O)O)cc2)C(=O)N[C@@H](CC(=O)O)C(=O)N[C@@H](Cc2cccc(Cl)c2)C(=O)N[C@@H](Cc2ccc(C(=O)O)cc2)C(=O)N[C@@H](Cc2ccc(-c3ccccc3)cc2)C(=O)N[C@@H](Cc2ccc(OCC(=O)O)cc2)C(=O)N(C)[C@@H](C)C(=O)N[C@H](CC(C)C)C(=O)N[C@@H](CCN)C(=O)N[C@@H](CC2CCCCC2)C(=O)N[C@@H](C(C)C)C(=O)N[C@@H]([C@@H](C)O)C(=O)N1)C(=O)NCCCCCCCCCCC(=O)O [Example 1239] ({CH2CO}-TY(Carboxymethyl)D[Phe(3-Cl)][Phe(4-COOH)][Bip]Y(Carboxymethyl)[NMeA][dL][Dab][Cha]VTC[Dab][Pra][Aun]-OH; thioether N-14) | 10.5 nM |
| Cc1cccc(C[C@@H]2NC(=O)[C@H](CC(=O)O)NC(=O)[C@H](Cc3ccc(OCC(=O)O)cc3)NC(=O)[C@H](CCCNC(=N)N)NC(=O)CSC[C@@H](C(=O)N[C@@H](CCN)C(=O)NCCCCCCCCCCC(=O)O)NC(=O)[C@H](C(C)O)NC(=O)[C@H](C(C)C)NC(=O)[C@H](CC3CCCCC3)NC(=O)[C@H](CCN)NC(=O)[C@@H](CC(C)C)NC(=O)[C@H](C)N(C)C(=O)[C@H](Cc3ccc(OCC(=O)O)cc3)NC(=O)[C@H](Cc3ccc(-c4ccccc4)cc3)NC(=O)[C@H](C(C)C)NC2=O)c1 (stereo partly drawn) [Example 2308] ({CH2CO}-RY(Carboxymethyl)D[Phe(3-Me)]V[Bip]Y(Carboxymethyl)[NMeA][dL][Dab][Cha]V[Thr(3ξ)]C[Dab][Aun]-OH; thioether N-14) | 21.1 nM |
| Cc1cccc(C[C@@H]2NC(=O)[C@H](CC(=O)O)NC(=O)[C@H](Cc3ccc(OCC(=O)O)cc3)NC(=O)[C@H](CN)NC(=O)CSC[C@@H](C(=O)N[C@@H](CCN)C(=O)NCCCCCCCCCCC(=O)O)NC(=O)[C@H]([C@@H](C)O)NC(=O)[C@H](C(C)C)NC(=O)[C@H](CC3CCCCC3)NC(=O)[C@H](CCN)NC(=O)[C@@H](CC(C)C)NC(=O)[C@H](C)N(C)C(=O)[C@H](Cc3ccc(O)cc3)NC(=O)[C@H](Cc3ccc(-c4ccccc4)cc3)NC(=O)[C@H](Cc3ccc(OCC(=O)O)cc3)NC2=O)c1 [Example 1258] ({CH2CO}-[Dap]Y(Carboxymethyl)D[Phe(3-Me)]Y(Carboxymethyl)[Bip]Y[NMeA][dL][Dab][Cha]VTC[Dab][Aun]-OH; thioether N-14) | 19 nM |
| CC(C)C[C@@H]1NC(=O)[C@H](Cc2c[nH]c3ccccc23)NC(=O)[C@H](CC(=O)O)NC(=O)[C@H](Cc2ccc(O)cc2)NC(=O)[C@H](Cc2ccncc2)NC(=O)CSC[C@@H](C(=O)NCCOCCOCC(=O)N[C@@H](CCCN)C(=O)NCCCCCCCCCCC(=O)O)NC(=O)[C@H](CCCN)NC(=O)[C@H](C(C)C)NC(=O)[C@H](CC2CCCCC2)NC(=O)[C@H](CCN)NC(=O)[C@@H](CC(C)C)NC(=O)[C@H](C)N(C)C(=O)[C@H](C(C)C)NC(=O)[C@H](Cc2ccc(-c3ccccc3)cc2)NC1=O [Example 2163] ({CH2CO}-[4Pal]YDWL[Bip]V[NMeA][dL][Dab][Cha]V[Orn]C[AEEA][Orn][Aun]-OH; thioether N-14) | 17.6 nM |
| CC(=O)NCCCC[C@@H]1NC(=O)[C@H](C(C)(C)O)NC(=O)[C@H](CC2CCCCC2)NC(=O)[C@H](CCN)NC(=O)[C@@H](CC(C)C)NC(=O)[C@H](C)N(C)C(=O)[C@H](CCC(N)=O)NC(=O)[C@H](Cc2ccc(-c3ccccc3)cc2)NC(=O)[C@H](Cc2ccc(C(=O)O)cc2)NC(=O)[C@H](Cc2cccc(C(F)(F)F)c2)NC(=O)[C@H](CC(=O)O)NC(=O)[C@H](Cc2ccc(OCC(=O)O)cc2)NC(=O)[C@H]([C@H](C)N)NC(=O)CSC[C@@H](C(=O)N[C@@H](CCN)C(=O)NCCOCCOCC(=O)N[C@@H](CCC(=O)NCCOCCOCC(=O)NCCCCCCCCCCCCC(=O)O)C(=O)O)NC1=O [Example 1202] ({CH2CO}-[Abu(3S-NH2)]Y(Carboxymethyl)D[Phe(3-CF3)][Phe(4-COOH)][Bip]Q[NMeA][dL][Dab][Cha][Val(3-OH)]K(Ac)C[Dab][AEEA][γGlu][AEEA]-{NH(CH2)12COOH}; thioether N-14) | 16 nM |
| CC(C)C[C@H]1NC(=O)[C@H](C)N(C)C(=O)[C@H](C(C)C)NC(=O)[C@H](Cc2ccc(-c3ccccc3)cc2)NC(=O)[C@H](C(C)C)NC(=O)[C@H](Cc2c[nH]c3ccccc23)NC(=O)[C@H](CC(=O)O)NC(=O)[C@H](Cc2ccc(OCC(=O)O)cc2)NC(=O)[C@H](CCCCNC(=N)N)NC(=O)CSC[C@@H](C(=O)NCC(=O)NCCOCCOCC(=O)N[C@@H](CCCN)C(=O)NCCCCCCCCCCC(=O)O)NC(=O)[C@H](CO)NC(=O)[C@H](C(C)C)NC(=O)[C@H](CC2CCCCC2)NC(=O)[C@H](CCN)NC1=O [Example 2084] ({CH2CO}-[hArg]Y(Carboxymethyl)DWV[Bip]V[NMeA][dL][Dab][Cha]VSCG[AEEA][Orn][Aun]-OH; thioether N-14) | 9.5 nM |

Same assay, conditions: PE-labeled PD-L1-Ig 20 nM final, Jurkat-hPD-1 cells; read-out: Jurkat HPD1 PDL1 IC50

| Compound | IC50 |
| --- | --- |
| Cc1cccc(C[C@@H]2NC(=O)[C@H](CC(=O)O)NC(=O)[C@H](Cc3ccc(C(=O)O)cc3)NC(=O)[C@H](C(C)O)NC(=O)CSC[C@@H](C(=O)N[C@@H](CCN)C(=O)NCCOCCOCC(=O)NCCOCCOCC(=O)NCCOCCOCC(=O)NCCCCCCCCCCCCCCC(=O)O)NC(=O)[C@H](CCC(=O)O)NC(=O)[C@H](C(C)C)NC(=O)[C@H](CC3CCCCC3)NC(=O)[C@H](CCN)NC(=O)[C@@H](CC(C)C)NC(=O)[C@H](C)N(C)C(=O)[C@H](Cc3ccc(C(=O)O)cc3)NC(=O)[C@H](Cc3ccc(-c4ccccc4)cc3)NC(=O)[C@H](Cc3ccc(C(=O)O)cc3)NC2=O)c1 (stereo partly drawn) [Example 2539] ({CH2CO}-[Thr(3ξ)][Phe(4-COOH)]D[Phe(3-Me)][Phe(4-COOH)][Bip][Phe(4-COOH)][NMeA][dL][Dab][Cha]VEC[Dab][AEEA][AEEA][AEEA]-{NH(CH2)14COOH}; thioether N-14) | 350 nM |
